Read-outs that look alike come from different tables or passages of the source.
Experiments:
[1] = molecular target: T1, VEGFR1 (Homo sapiens, UniProt P17948); experiment: VEGFR1 Kinase-Glo kinase assay; assay type: biochemical
T1 construct: GST-VEGFR1 (residues R781-I1338); GST (N); made in house; host or cells: Sf9 insect cells
T1 sequence (P17948 781-1338): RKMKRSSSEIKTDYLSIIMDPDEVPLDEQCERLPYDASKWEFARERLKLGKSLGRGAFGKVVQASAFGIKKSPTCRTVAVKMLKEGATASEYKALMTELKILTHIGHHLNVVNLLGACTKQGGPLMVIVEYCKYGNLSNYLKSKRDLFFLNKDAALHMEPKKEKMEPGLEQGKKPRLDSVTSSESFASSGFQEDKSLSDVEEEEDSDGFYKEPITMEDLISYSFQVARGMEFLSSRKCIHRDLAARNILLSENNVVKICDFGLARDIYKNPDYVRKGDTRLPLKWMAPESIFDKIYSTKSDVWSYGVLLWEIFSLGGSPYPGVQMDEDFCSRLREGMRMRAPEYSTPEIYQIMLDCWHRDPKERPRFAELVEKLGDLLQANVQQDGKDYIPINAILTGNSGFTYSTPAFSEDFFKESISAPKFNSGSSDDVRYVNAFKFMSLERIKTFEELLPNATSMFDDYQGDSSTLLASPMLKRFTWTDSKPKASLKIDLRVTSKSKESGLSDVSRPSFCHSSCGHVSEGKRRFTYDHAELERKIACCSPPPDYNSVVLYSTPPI
Protocol: (§1) The recombinant GST-VEGFR1 (residues R781-I1338) or GST-VEGFR2 (residues V789-V1356) containing kinase domain were expressed in Sf9 insect cells. The kinase assay were carried out in 96-well plates with tested compound in a final volume of 50 μl reaction at 30° C. for 120 minutes with following components: 25 mM HEPES pH 7.4, 10 mM MgCl2, 4 mM MnCl2, 0.5 mM Na3VO4, 2 mM DTT, 0.02% Triton X100, 0.01% BSA, 1 μM ATP, 2 μM polyGlu4:Tyr peptide, 50˜100 ng recombinant VEGFR1 or VEGFR2. Following incubation, 50 μl Kinase-Glo Plus Reagent (Promega, Madison, Wis., USA) was added to each well and the mixture was incubated at 25° C. for 20 min. A 70-μL aliquot of each reaction mixture was transferred to a black microtiter plate and the luminescence was measured on Wallac Vector 1420 multilabel counter (PerkinElmer, Shelton, Conn., USA).

[2] = molecular target: T2, VEGFR2 (Homo sapiens, UniProt P35968); experiment: VEGFR2 Kinase-Glo kinase assay; assay type: biochemical
T2 construct: GST-VEGFR2 (residues V789-V1356); GST (N); made in house; host or cells: Sf9 insect cells
T2 sequence (P35968 789-1356): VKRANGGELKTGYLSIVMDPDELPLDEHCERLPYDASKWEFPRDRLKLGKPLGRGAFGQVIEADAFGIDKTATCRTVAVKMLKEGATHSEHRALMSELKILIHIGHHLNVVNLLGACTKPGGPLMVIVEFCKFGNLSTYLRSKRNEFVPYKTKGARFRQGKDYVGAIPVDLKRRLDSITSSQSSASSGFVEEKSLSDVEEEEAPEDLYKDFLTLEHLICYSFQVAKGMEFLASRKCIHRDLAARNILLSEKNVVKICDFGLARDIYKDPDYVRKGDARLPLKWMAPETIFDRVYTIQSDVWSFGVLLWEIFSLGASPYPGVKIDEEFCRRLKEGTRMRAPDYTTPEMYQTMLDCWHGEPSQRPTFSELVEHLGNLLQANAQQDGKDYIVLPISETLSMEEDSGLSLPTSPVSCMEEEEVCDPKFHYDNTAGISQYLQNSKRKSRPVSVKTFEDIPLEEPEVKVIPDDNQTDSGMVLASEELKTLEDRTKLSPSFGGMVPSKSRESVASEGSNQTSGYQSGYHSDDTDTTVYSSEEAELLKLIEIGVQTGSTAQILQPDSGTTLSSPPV
Protocol: as §1

[3] = molecular target: T3, Aurora A (Homo sapiens, UniProt O14965); experiment: Aurora kinase A Kinase-Glo kinase assay; assay type: biochemical
T3 construct: GST-Aurora A (residues S123-S401); GST (N); made in house; host or cells: Sf9 insect cells
T3 sequence (O14965 123-401): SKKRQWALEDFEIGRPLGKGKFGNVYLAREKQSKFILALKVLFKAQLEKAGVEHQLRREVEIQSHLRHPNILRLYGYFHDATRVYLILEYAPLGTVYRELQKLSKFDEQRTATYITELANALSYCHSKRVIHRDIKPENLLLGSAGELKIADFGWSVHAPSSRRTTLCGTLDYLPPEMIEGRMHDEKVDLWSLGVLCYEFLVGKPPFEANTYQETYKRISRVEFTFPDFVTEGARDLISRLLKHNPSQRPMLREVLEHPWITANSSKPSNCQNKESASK
Protocol: The recombinant GST-Aurora A (residues S123-S401) containing kinase domain were expressed in Sf9 insect cells. The kinase assay were carried out in 96-well plates with tested compound in a final volume of 50 μl reaction at 37° C. for 90 minutes with following components: 50 mM Tris-HCl pH 7.4, 10 mM NaCl, 10 mM MgCl2, 0.01% BSA, 5 μM ATP, 1 mM DTT and 15 μM tetra(LRRASLG) peptide, and 150 ng recombinant Aurora A. Following incubation, 50 μl Kinase-Glo Plus Reagent (Promega, Madison, Wis., USA) was added to each well and the mixture was incubated at 25° C. for 20 min. A 70-μL aliquot of each reaction mixture was transferred to a black microtiter plate and the luminescence was measured on Wallac Vector 1420 multilabel counter (PerkinElmer, Shelton, Conn., USA).

[4] = molecular target: T4, wt-FLT3 (Homo sapiens, UniProt P36888); experiment: FLT3 WT Kinase-Glo assay; assay type: biochemical; conditions: table of representative values; read-out: IC50 (nM) wt-FLT3
T4 construct: FLT3 kinase catalytic domain (residues Y567˜S993); made in house; host or cells: Sf9 insect cells (baculovirus, pBac-PAK8-GST-FLT3-KD plasmid)
T4 sequence (P36888 567-993): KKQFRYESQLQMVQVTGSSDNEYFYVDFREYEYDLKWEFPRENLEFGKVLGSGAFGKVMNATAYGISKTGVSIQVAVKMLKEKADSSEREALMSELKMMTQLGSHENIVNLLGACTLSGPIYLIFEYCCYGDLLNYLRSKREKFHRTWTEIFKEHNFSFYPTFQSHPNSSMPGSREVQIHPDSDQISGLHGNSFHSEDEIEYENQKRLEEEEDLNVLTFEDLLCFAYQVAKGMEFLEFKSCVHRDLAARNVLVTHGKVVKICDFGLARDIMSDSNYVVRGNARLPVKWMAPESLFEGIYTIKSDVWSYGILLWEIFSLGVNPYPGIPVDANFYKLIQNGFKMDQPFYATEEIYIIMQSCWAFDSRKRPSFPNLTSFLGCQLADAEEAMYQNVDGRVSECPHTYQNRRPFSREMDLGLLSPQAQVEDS
Protocol: GST-FLT3-KD^WT containing the FLT3 kinase catalytic domain (residues Y567˜S993) were expressed in Sf9 insect cells transfected the baculovirus containing pBac-PAK8-GST-FLT3-KD plasmid. […] Following incubation, 50 μl Kinase-Glo Plus Reagent (Promega, Madison, Wis., USA) was added to each well and the mixture was incubated at 25° C. for 20 min. A 70-μL aliquot of each reaction mixture was transferred to a black microtiter plate and the luminescence was measured on Wallac Vector 1420 multilabel counter (PerkinElmer, Shelton, Conn., USA).

[5] = tested on: MOLM-13 cell; experiment: MTS cell viability assay; assay type: cell-based; conditions: Homo sapiens, MOLM-13, 72 h, table of representative values
Text: The leukemias cell lines MOLM-13, MV4:11, RSV4:11, MOLT-4, U937, and K562 were purchased from American Type Culture Collection (ATCC, Manassas, Va., USA). The non-leukemias cell lines HCC827, H1975, NCIH460, A431, Huh7, SF268, MCF-7, HCT-116, and normal human fetal fibroblast cell line Detriot 551 were purchased from American Type Culture Collection (ATCC, Manassas, Va., USA). All leukemias cell lines and HCC827, H1975, NCIH460, A431 were maintained in RPMI 1640 medium supplemented with 10% fetal bovine serum (FBS), 10 U/ml penicillin, and 10 µg/ml streptomycin at 37° C. and 5% CO2. The cell lines Huh7, SF268, MCF-7, and Detroit 551 were cultured in DMEM medium supplemented with 10% FBS, 0.01% nonessential amino acids, 10 U/ml penicillin, and 10 µg/ml streptomycin. HCT-116 were cultured in McCoy's 5A medium supplemented with 10% FBS, 0.01% nonessential amino acids, 10 U/ml penicillin, and 10 µg/ml streptomycin. To determine cell viability after drug treatment, assays were performed by seeding 10,000 cells (leukemias cell lines) or 2,500 cells (non-leukemias cell lines) per well in a 96-well culture plate. After 16 h, cells were then treated with vehicle or various concentrations of compound in medium for 72 h. Viable cells were quantitated using the MTS method (Promega, Madison, Wis., USA) according to the manufacturer's recommended protocol. The results were determined by measuring the absorbance at 490 nm using a plate reader (Victor2; PerkinElmer, Shelton, Conn., USA).

[6] = VEGFR1 assay, 1 μM ATP, bound in μM, read-out: IC50
[7] = table of representative values, read-out: IC50 (nM) VEGFR1
[8] = VEGFR2 assay, 1 μM ATP, bound in μM, read-out: IC50
[9] = table of representative values, read-out: IC50 (nM) VEGFR2
[10] = Aurora A assay, 5 μM ATP, bound in nM, read-out: IC50
[11] = Aurora A assay, 5 μM ATP, bound in μM, read-out: IC50
[12] = table of representative values, read-out: IC50 (nM) Aurora A
[13] = VEGFR1 assay, 1 μM ATP, bound in nM, read-out: IC50
[14] = VEGFR2 assay, 1 μM ATP, ranges in nM, read-out: IC50

| SMILES | IC50 [1, 6] [µM] | IC50 [1, 7] [µM] | IC50 [2, 8] [µM] | IC50 [2, 9] [µM] | IC50 [3, 10] [nM] | IC50 [3, 11] [nM] | IC50 [3, 12] [nM] | IC50 [4] [nM] | GI50 [5] [nM] | IC50 [1, 13] [µM] | IC50 [2, 14] [µM] |
| --- | --- | --- | --- | --- | --- | --- | --- | --- | --- | --- | --- |
| CCc1cc(NC(=O)Nc2ccc(-c3cc(NC(=O)c4ccc(OCCN5CCOCC5)cc4)[nH]n3)cc2C)no1 [Compound 46b, N1-3-[4-([(5-ethyl-3-isoxazolyl)amino]carbonylamino)-3-methylphenyl]-1H-5-pyrazolyl-4-(2-morpholinoethoxy)benzamide] | < 1 | 0.29 | < 1 | 0.151 | < 200 | < 1000 | 22 | 27 | 1 |  |  |
| Cc1cc(-c2cc(NC(=O)c3ccc(OCCN4CCOCC4)cc3)[nH]n2)ccc1NC(=O)Nc1cc(C2CC2)on1 [Compound 46c, N1-3-[4-([(5-cyclopropyl-3-isoxazolyl)amino]carbonylamino)-3-methylphenyl]-1H-5-pyrazolyl-4-(2-morpholinoethoxy)benzamide] | < 1 | 0.053 | < 1 | 0.037 | < 200 | < 1000 | 41 | 38 | 2 | < 0.1 | 0.001 to 0.055 |
| O=C(NCc1ccc(-c2cc(NC(=O)c3ccc(OCCN4CCOCC4)cc3)[nH]n2)cc1)Nc1cc(C2CC2)on1 [Compound 59d, N1-(3-4-[([(5-cyclopropyl-3-isoxazolyl)amino]carbonylamino)methyl]phenyl-1H-5-pyrazolyl)-4-(2-morpholinoethoxy)benzamide] | < 1 | 0.342 | < 1 | 0.045 |  |  |  | 21 | 6 |  | 0.001 to 0.055 |

Further lines, results first:

| IC50 [1, 6] [µM] | IC50 [1, 7] [µM] | IC50 [2, 8] [µM] | IC50 [2, 9] [µM] | IC50 [3, 10] [nM] | IC50 [3, 11] [nM] | IC50 [3, 12] [nM] | IC50 [4] [nM] | GI50 [5] [nM] | IC50 [1, 13] [µM] | IC50 [2, 14] [µM] | SMILES |
| --- | --- | --- | --- | --- | --- | --- | --- | --- | --- | --- | --- |
| < 1 | 0.029 | < 1 | 0.037 |  |  | > 1000 | 26 | 2 | < 0.1 | 0.001 to 0.055 | CCc1cc(NC(=O)NCc2ccc(-c3cc(NC(=O)c4ccc(CN5CCN(C)CC5)cc4)[nH]n3)cc2)no1 [Compound 62b, N1-(3-4-[([(5-ethyl-3-isoxazolyl)amino]carbonylamino)methyl]phenyl-1H-5-pyrazolyl)-4-[(4-methylpiperazino)methyl]benzamide] |
| < 1 | 0.18 | < 1 | 0.023 |  |  |  | 38 | 3 |  | 0.001 to 0.055 | CN1CCN(Cc2ccc(C(=O)Nc3cc(-c4ccc(CNC(=O)Nc5cc(C6CC6)on5)cc4)n[nH]3)cc2)CC1 [Compound 62d, N1-(3-4-[([(5-cyclopropyl-3-isoxazolyl)amino]carbonylamino)methyl]phenyl-1H-5-pyrazolyl)-4-[(4-methylpiperazino)methyl]benzamide] |
